Holding throughout (assay): MIC, sole activity (no second agent)
Common to all, as to format: cell-based
Common to all, as to settings: Table 6A; no second agent; different supplier of Cation-adjusted MHB

Assay [1] has as its system Acinetobacter baumannii. In a few lines: (§1)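 First, isolated colonies grown 18-24 hours on Mueller-Hinton agar were suspended to 0.5 McFarland; next, up to four strains per pathogen were tested in duplicate in cation-adjusted MHB; finally, the lower concordant value or modal repeat value was reported against Polymyxin B.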
Assay [2] relates to Klebsiella pneumoniae. In a few lines:
as §1

The subject of assay [3] is Pseudomonas aeruginosa. The method in brief:
as §1

For assay [4], the system named is Escherichia coli. The method in brief: as §1

These results are taken from patent publication US10407467B2, “Polymyxin derivatives and their use in combination therapy together with different antibiotics” (priority 2013, dated 2019).

Take “(S)-1-(2-methylpropyl)- piperidine-3-carbonyl polymyxin B nonapeptide [Example A48]”: in assay [1], the “MIC A. baumannii ATCC BAA-747” value was found to be 4 micrograms/mL and the “MIC A. baumannii NCTC 13424” value is 2 micrograms/mL. Further, in assay [2], the “MIC K. pneumoniae ATCC 4352” value was 0.5 micrograms/mL and the “MIC K. pneumoniae ATCC BAA-2146” value stood at 2 micrograms/mL. Moreover, in assay [3], the “MIC P. aeruginosa ATCC 27853” value came out at 1 micrograms/mL and the “MIC P. aeruginosa CCUG 59347” value was found to be 4 micrograms/mL. For the same substance, in assay [4], the “MIC E. coli ATCC25922” value is 1 micrograms/mL and the “MIC E. coli NCTC 13441” value came out at 1 micrograms/mL.
Turning to “(S)-1-(3-methylbutanoyl) piperazine-2-carbonyl polymyxin B nonapeptide [Example A47]”, in assay [1], the “MIC A. baumannii ATCC BAA-747” value is 8 micrograms/mL and the “MIC A. baumannii NCTC 13424” value was 4 micrograms/mL. Also, in assay [2], the “MIC K. pneumoniae ATCC 4352” value is greater than 8 micrograms/mL and the “MIC K. pneumoniae ATCC BAA-2146” value is given as 8 micrograms/mL. Further, in assay [3], the “MIC P. aeruginosa ATCC 27853” value amounted to 2 micrograms/mL and the “MIC P. aeruginosa CCUG 59347” value was 8 micrograms/mL. In addition, in assay [4], the “MIC E. coli ATCC25922” value is greater than 8 micrograms/mL and the “MIC E. coli NCTC 13441” value is listed as 8 micrograms/mL.
With “Cis-4-Octyl piperidine-2- carbonyl polymyxin B nonapeptide. Isomer 1 [Example A43]”, in assay [1], the “MIC A. baumannii ATCC BAA-747” value is greater than 8 micrograms/mL and the “MIC A. baumannii NCTC 13424” value was greater than 8 micrograms/mL. Further, the “MIC K. pneumoniae ATCC 4352” value in assay [2] is greater than 8 micrograms/mL. Moreover, in assay [3], the “MIC P. aeruginosa ATCC 27853” value was found to be 4 micrograms/mL and the “MIC P. aeruginosa CCUG 59347” value was determined as 8 micrograms/mL. For the same substance, in assay [4], the “MIC E. coli ATCC25922” value stood at 8 micrograms/mL and the “MIC E. coli NCTC 13441” value is on record as greater than 8 micrograms/mL.
As for “Cis-4-Octyl piperidine-2- carbonyl polymyxin B nonapeptide. Isomer 2 [Example A44]”, in assay [1], the “MIC A. baumannii ATCC BAA-747” value turned out to be 2 micrograms/mL and the “MIC A. baumannii NCTC 13424” value is reported as 4 micrograms/mL. The “MIC K. pneumoniae ATCC 4352” value in assay [2] turned out to be 2 micrograms/mL. Besides, in assay [3], the “MIC P. aeruginosa ATCC 27853” value turned out to be 1 micrograms/mL and the “MIC P. aeruginosa CCUG 59347” value amounted to 2 micrograms/mL. In assay [4], the “MIC E. coli ATCC25922” value was found to be 2 micrograms/mL and the “MIC E. coli NCTC 13441” value is 2 micrograms/mL.
Regarding “D-Leu-polymyxin B nonapeptide [Example A42]”, in assay [1], the “MIC A. baumannii ATCC BAA-747” value is reported as 4 micrograms/mL and the “MIC A. baumannii NCTC 13424” value turned out to be 4 micrograms/mL. In assay [2], the “MIC K. pneumoniae ATCC 4352” value was determined as 2 micrograms/mL and the “MIC K. pneumoniae ATCC BAA-2146” value worked out at 1 micrograms/mL. In assay [3], the “MIC P. aeruginosa ATCC 27853” value is listed as 0.5 micrograms/mL and the “MIC P. aeruginosa CCUG 59347” value was 2 micrograms/mL. In assay [4], the “MIC E. coli ATCC25922” value stood at 2 micrograms/mL and the “MIC E. coli NCTC 13441” value was found to be 1 micrograms/mL.
In the case of “D-Phe polymyxin B nonapeptide [Example A35]”, in assay [1], the “MIC A. baumannii ATCC BAA-747” value came out at 8 micrograms/mL and the “MIC A. baumannii NCTC 13424” value turned out to be 8 micrograms/mL. Besides, in assay [2], the “MIC K. pneumoniae ATCC 4352” value was determined as 2 micrograms/mL and the “MIC K. pneumoniae ATCC BAA-2146” value was determined as 2 micrograms/mL. For the same substance, in assay [3], the “MIC P. aeruginosa ATCC 27853” value is 0.25 micrograms/mL and the “MIC P. aeruginosa CCUG 59347” value came out at 1 micrograms/mL. In assay [4], the “MIC E. coli ATCC25922” value worked out at 1 micrograms/mL and the “MIC E. coli NCTC 13441” value came out at 2 micrograms/mL.
For the substance “D-Pro polymyxin B nonapeptide [Example A36]”, in assay [1], the “MIC A. baumannii ATCC BAA-747” value is 8 micrograms/mL and the “MIC A. baumannii NCTC 13424” value stood at 8 micrograms/mL. In assay [2], the “MIC K. pneumoniae ATCC 4352” value is 1 micrograms/mL and the “MIC K. pneumoniae ATCC BAA-2146” value was 8 micrograms/mL. Moreover, in assay [3], the “MIC P. aeruginosa ATCC 27853” value is on record as 1 micrograms/mL and the “MIC P. aeruginosa CCUG 59347” value was 4 micrograms/mL. In assay [4], the “MIC E. coli ATCC25922” value was determined as 2 micrograms/mL and the “MIC E. coli NCTC 13441” value came to 2 micrograms/mL.
Turning to “L-Pro polymyxin B nonapeptide [Example A37]”, in assay [1], the “MIC A. baumannii ATCC BAA-747” value is reported as greater than 8 micrograms/mL and the “MIC A. baumannii NCTC 13424” value is greater than 8 micrograms/mL. For the same substance, in assay [2], the “MIC K. pneumoniae ATCC 4352” value is greater than 8 micrograms/mL and the “MIC K. pneumoniae ATCC BAA-2146” value is given as greater than 8 micrograms/mL. Besides, in assay [3], the “MIC P. aeruginosa ATCC 27853” value was 2 micrograms/mL and the “MIC P. aeruginosa CCUG 59347” value is greater than 8 micrograms/mL. Moreover, in assay [4], the “MIC E. coli ATCC25922” value is greater than 8 micrograms/mL and the “MIC E. coli NCTC 13441” value is given as greater than 8 micrograms/mL.
For “Piperidine-1-ylethanoyl polymyxin B nonapeptide [Example A2]”, in assay [1], the “MIC A. baumannii ATCC BAA-747” value is recorded as greater than 8 micrograms/mL and the “MIC A. baumannii NCTC 13424” value was greater than 8 micrograms/mL. Besides, the “MIC K. pneumoniae ATCC 4352” value in assay [2] is on record as 8 micrograms/mL. Besides, in assay [3], the “MIC P. aeruginosa ATCC 27853” value was determined as 2 micrograms/mL and the “MIC P. aeruginosa CCUG 59347” value was 4 micrograms/mL. Moreover, in assay [4], the “MIC E. coli ATCC25922” value is reported as 4 micrograms/mL and the “MIC E. coli NCTC 13441” value is reported as greater than 8 micrograms/mL.
For the substance “Piperidine-2-carbonyl polymyxin B nonapeptide. Isomer 1 [Example A25]”, in assay [1], the “MIC A. baumannii ATCC BAA-747” value was greater than 8 micrograms/mL and the “MIC A. baumannii NCTC 13424” value is 8 micrograms/mL. Moreover, in assay [2], the “MIC K. pneumoniae ATCC 4352” value is on record as 8 micrograms/mL and the “MIC K. pneumoniae ATCC BAA-2146” value is greater than 8 micrograms/mL. Moreover, in assay [3], the “MIC P. aeruginosa ATCC 27853” value was determined as 2 micrograms/mL and the “MIC P. aeruginosa CCUG 59347” value amounted to 4 micrograms/mL. In addition, in assay [4], the “MIC E. coli ATCC25922” value was greater than 8 micrograms/mL and the “MIC E. coli NCTC 13441” value is listed as greater than 8 micrograms/mL.
Consider “Piperidine-2-carbonyl polymyxin B nonapeptide. Isomer 2 [Example A26]”, for which, in assay [1], the “MIC A. baumannii ATCC BAA-747” value was 2 micrograms/mL and the “MIC A. baumannii NCTC 13424” value is listed as 1 micrograms/mL. Besides, in assay [2], the “MIC K. pneumoniae ATCC 4352” value was found to be 0.5 micrograms/mL and the “MIC K. pneumoniae ATCC BAA-2146” value is listed as 1 micrograms/mL. Also, in assay [3], the “MIC P. aeruginosa ATCC 27853” value stood at 1 micrograms/mL and the “MIC P. aeruginosa CCUG 59347” value stood at 2 micrograms/mL. Further, in assay [4], the “MIC E. coli ATCC25922” value is on record as 2 micrograms/mL and the “MIC E. coli NCTC 13441” value is reported as 2 micrograms/mL.
In the case of “[2-(RS)-(2-Hydroxy-2- cyclohexyl)ethanoyl]-L-Thr- L-Dap-polymyxin B heptapeptide [Example A4]”, in assay [1], the “MIC A. baumannii ATCC BAA-747” value was greater than 8 micrograms/mL and the “MIC A. baumannii NCTC 13424” value was greater than 8 micrograms/mL. Moreover, the “MIC K. pneumoniae ATCC 4352” value in assay [2] is reported as 2 micrograms/mL. In assay [3], the “MIC P. aeruginosa ATCC 27853” value is on record as 2 micrograms/mL and the “MIC P. aeruginosa CCUG 59347” value was 2 micrograms/mL. Also, in assay [4], the “MIC E. coli ATCC25922” value is recorded as 1 micrograms/mL and the “MIC E. coli NCTC 13441” value worked out at 4 micrograms/mL.
On to “[3(R,S)-3-Amino-3- cyclohexanepropanoyl]-Gly- polymyxin B nonapeptide [Example A7]”, for which, in assay [1], the “MIC A. baumannii ATCC BAA-747” value is on record as 4 micrograms/mL and the “MIC A. baumannii NCTC 13424” value was determined as 8 micrograms/mL. Moreover, the “MIC K. pneumoniae ATCC 4352” value in assay [2] is recorded as greater than 8 micrograms/mL. Also, in assay [3], the “MIC P. aeruginosa ATCC 27853” value is reported as 1 micrograms/mL and the “MIC P. aeruginosa CCUG 59347” value was greater than 8 micrograms/mL. In assay [4], the “MIC E. coli ATCC25922” value is greater than 8 micrograms/mL and the “MIC E. coli NCTC 13441” value was greater than 8 micrograms/mL.
Turning to “[3(R,S)-3-Amino-3- cyclohexanepropanoyl]-L- Arg- polymyxin B nonapeptide [Example A23]”, in assay [1], the “MIC A. baumannii ATCC BAA-747” value is recorded as 2 micrograms/mL and the “MIC A. baumannii NCTC 13424” value stood at 4 micrograms/mL. Also, in assay [2], the “MIC K. pneumoniae ATCC 4352” value is greater than 8 micrograms/mL and the “MIC K. pneumoniae ATCC BAA-2146” value is listed as greater than 8 micrograms/mL. Besides, in assay [3], the “MIC P. aeruginosa ATCC 27853” value is 8 micrograms/mL and the “MIC P. aeruginosa CCUG 59347” value is greater than 8 micrograms/mL. In assay [4], the “MIC E. coli ATCC25922” value is greater than 8 micrograms/mL and the “MIC E. coli NCTC 13441” value is greater than 8 micrograms/mL.
On to “[3(R,S)-3-Amino-3- cyclohexanepropanoyl]-L- Dab-L-Thr-L-Dap polymyxin B heptapeptide [Example A10]”, for which, in assay [1], the “MIC A. baumannii ATCC BAA-747” value worked out at 2 micrograms/mL and the “MIC A. baumannii NCTC 13424” value came out at 2 micrograms/mL. Besides, the “MIC K. pneumoniae ATCC 4352” value in assay [2] is 0.5 micrograms/mL. Besides, in assay [3], the “MIC P. aeruginosa ATCC 27853” value was found to be 0.25 micrograms/mL and the “MIC P. aeruginosa CCUG 59347” value turned out to be 0.25 micrograms/mL. Moreover, in assay [4], the “MIC E. coli ATCC25922” value was determined as 1 micrograms/mL and the “MIC E. coli NCTC 13441” value is on record as 1 micrograms/mL.
Turning to “[3(R,S)-3-Amino-3- cyclohexanepropanoyl]-L- His- polymyxin B nonapeptide [Example A19]”, in assay [1], the “MIC A. baumannii ATCC BAA-747” value is 4 micrograms/mL and the “MIC A. baumannii NCTC 13424” value amounted to 4 micrograms/mL. Further, in assay [2], the “MIC K. pneumoniae ATCC 4352” value is 8 micrograms/mL and the “MIC K. pneumoniae ATCC BAA-2146” value is listed as 8 micrograms/mL. For the same substance, in assay [3], the “MIC P. aeruginosa ATCC 27853” value is 1 micrograms/mL and the “MIC P. aeruginosa CCUG 59347” value stood at 2 micrograms/mL. In addition, in assay [4], the “MIC E. coli ATCC25922” value was 8 micrograms/mL and the “MIC E. coli NCTC 13441” value is listed as 4 micrograms/mL.
With “[3(R,S)-3-Amino-3- cyclohexanepropanoyl]-L- Phe- polymyxin B nonapeptide isomer 1 [Example A20]”, in assay [1], the “MIC A. baumannii ATCC BAA-747” value is reported as greater than 8 micrograms/mL and the “MIC A. baumannii NCTC 13424” value is greater than 8 micrograms/mL. In assay [2], the “MIC K. pneumoniae ATCC 4352” value is recorded as greater than 8 micrograms/mL and the “MIC K. pneumoniae ATCC BAA-2146” value is greater than 8 micrograms/mL. Further, in assay [3], the “MIC P. aeruginosa ATCC 27853” value is reported as greater than 8 micrograms/mL and the “MIC P. aeruginosa CCUG 59347” value is listed as greater than 8 micrograms/mL. Also, in assay [4], the “MIC E. coli ATCC25922” value is greater than 8 micrograms/mL and the “MIC E. coli NCTC 13441” value is listed as greater than 8 micrograms/mL.
